Laboratory results from ChEMBL document CHEMBL3124929, “Novel S1P(1) receptor agonists--part 3: from thiophenes to pyridines” (J Med Chem, 2014).

How the values were obtained:
[1] = Volume of distribution at steady state in Wistar rat at 0.5 mg/kg, iv by LC-MS/MS analysis; assay type: ADME, organism-based; parameters: dose 0.5 mg/kg, route intravenous; settings: in vivo, read-out: Vdss
[2] = AUC (0 to infinity) in Wistar rat at 0.5 mg/kg, iv by LC-MS/MS analysis; assay type: ADME, organism-based; parameters: time infinity, dose 0.5 mg/kg, route intravenous; settings: plasma
[3] = Oral bioavailability in Wistar rat at 10 mg/kg by LC-MS/MS analysis; assay type: ADME, organism-based; settings: in vivo
[4] = AUC (0 to 24 hrs) in Wistar rat at 10 mg/kg, po by LC-MS/MS analysis; assay type: ADME, organism-based; parameters: time < 24 hr, dose 10 mg/kg, route oral; settings: plasma
[5] = Tmax in Wistar rat at 10 mg/kg, po by LC-MS/MS analysis; assay type: ADME, organism-based; parameters: dose 10 mg/kg, route oral; settings: in vivo
[6] = Cmax in Wistar rat at 10 mg/kg, po by LC-MS/MS analysis; assay type: ADME, organism-based; parameters: dose 10 mg/kg, route oral; settings: in vivo
[7] = Drug uptake in Wistar rat brain at 10 mg/kg, po after 24 hrs; assay type: ADME, organism-based; parameters: dose 10 mg/kg, route oral; settings: read-out: Drug uptake
[8] = Drug uptake in Wistar rat brain at 10 mg/kg, po after 6 hrs; assay type: ADME, organism-based; parameters: dose 10 mg/kg, route oral; settings: read-out: Drug uptake
[9] = Drug uptake in Wistar rat brain at 10 mg/kg, po after 2 hrs; assay type: ADME, organism-based; parameters: dose 10 mg/kg, route oral; settings: read-out: Drug uptake
[10] = Plasma concentration in Wistar rat at 10 mg/kg, po after 2 hrs; assay type: ADME, organism-based; parameters: dose 10 mg/kg, route oral
[11] = Plasma concentration in Wistar rat at 10 mg/kg, po after 24 hrs; assay type: ADME, organism-based; parameters: dose 10 mg/kg, route oral
[12] = Plasma concentration in Wistar rat at 10 mg/kg, po after 6 hrs; assay type: ADME, organism-based; parameters: dose 10 mg/kg, route oral
[13] = Oral bioavailability in Wistar rat at 1 mg/kg by LC-MS/MS analysis; assay type: ADME, organism-based; settings: in vivo
[14] = AUC (0 to 24 hrs) in Wistar rat at 1 mg/kg, po by LC-MS/MS analysis; assay type: ADME, organism-based; parameters: time < 24 hr, dose 1 mg/kg, route oral; settings: plasma
[15] = Tmax in Wistar rat at 1 mg/kg, po by LC-MS/MS analysis; assay type: ADME, organism-based; parameters: dose 1 mg/kg, route oral; settings: in vivo
[16] = Cmax in Wistar rat at 1 mg/kg, po by LC-MS/MS analysis; assay type: ADME, organism-based; parameters: dose 1 mg/kg, route oral; settings: in vivo
[17] = Tmax in Wistar rat brain at 10 mg/kg, po; assay type: ADME, organism-based; parameters: dose 10 mg/kg, route oral
[18] = Tmax in Wistar rat plasma at 10 mg/kg, po; assay type: ADME, organism-based; parameters: dose 10 mg/kg, route oral
[19] = Volume of distribution at steady state in cynomolgus monkey at 1 mg/kg, iv by LC-MS/MS analysis; assay type: ADME, organism-based, Macaca fascicularis; parameters: dose 1 mg/kg, route intravenous; settings: in vivo, read-out: Vdss
[20] = AUC (0 to infinity) in cynomolgus monkey at 1 mg/kg, iv by LC-MS/MS analysis; assay type: ADME, organism-based, Macaca fascicularis; parameters: time infinity, dose 1 mg/kg, route intravenous; settings: plasma
[21] = Volume of distribution at steady state in Beagle dog at 1 mg/kg, iv by LC-MS/MS analysis; assay type: ADME, organism-based, Canis lupus familiaris; parameters: dose 1 mg/kg, route intravenous; settings: in vivo, read-out: Vdss
[22] = AUC (0 to infinity) in Beagle dog at 1 mg/kg, iv by LC-MS/MS analysis; assay type: ADME, organism-based, Canis lupus familiaris; parameters: time infinity, dose 1 mg/kg, route intravenous; settings: plasma
[23] = Volume of distribution at steady state in Wistar rat at 1 mg/kg, iv by LC-MS/MS analysis; assay type: ADME, organism-based; parameters: dose 1 mg/kg, route intravenous; settings: in vivo, read-out: Vdss
[24] = AUC (0 to infinity) in Wistar rat at 1 mg/kg, iv by LC-MS/MS analysis; assay type: ADME, organism-based; parameters: time infinity, dose 1 mg/kg, route intravenous; settings: plasma
[25] = Oral bioavailability in cynomolgus monkey at 1 mg/kg by LC-MS/MS analysis; assay type: ADME, organism-based, Macaca fascicularis; settings: in vivo
[26] = AUC (0 to 24 hrs) in cynomolgus monkey at 1 mg/kg, po by LC-MS/MS analysis; assay type: ADME, organism-based, Macaca fascicularis; parameters: time < 24 hr, dose 1 mg/kg, route oral; settings: plasma
[27] = Oral bioavailability in Beagle dog at 3 mg/kg by LC-MS/MS analysis; assay type: ADME, organism-based, Canis lupus familiaris; settings: in vivo
[28] = AUC (0 to 24 hrs) in Beagle dog at 3 mg/kg, po by LC-MS/MS analysis; assay type: ADME, organism-based, Canis lupus familiaris; parameters: time < 24 hr, dose 3 mg/kg, route oral; settings: plasma
[29] = Tmax in Beagle dog at 3 mg/kg, po by LC-MS/MS analysis; assay type: ADME, organism-based, Canis lupus familiaris; parameters: dose 3 mg/kg, route oral; settings: in vivo
[30] = Cmax in Beagle dog at 3 mg/kg, po by LC-MS/MS analysis; assay type: ADME, organism-based, Canis lupus familiaris; parameters: dose 3 mg/kg, route oral; settings: in vivo
[31] = AUC (0 to 32 hrs) in Wistar rat at 10 mg/kg, po by LC-MS/MS analysis; assay type: ADME, organism-based; parameters: time < 32 hr, dose 10 mg/kg, route oral; settings: plasma
[32] = Cmax in cynomolgus monkey at 1 mg/kg, po by LC-MS/MS analysis; assay type: ADME, organism-based, Macaca fascicularis; parameters: dose 1 mg/kg, route oral; settings: in vivo
[33] = Tmax in cynomolgus monkey at 1 mg/kg, po by LC-MS/MS analysis; assay type: ADME, organism-based, Macaca fascicularis; parameters: dose 1 mg/kg, route oral; settings: in vivo
[34] = Plasma concentration in Wistar rat at 10 mg/kg, po after 3 hrs; assay type: ADME, organism-based; parameters: dose 10 mg/kg, route oral

## CCc1cc(-c2noc(-c3cc(C)nc(C(CC)CC)c3)n2)cc(C)c1OC[C@@H](O)CNC(=O)CO
[1]
  Vd: 3.4 L/kg
[2]
  AUC(0-inf): 69.9 ng·h/mL
[3]
  bioavailability: 126%
[4]
  AUC(0-t) at 24 h: 1760 ng·h/mL
[5]
  Tmax: 0.5 h
[6]
  Cmax: 804 ng/mL

## CCc1cc(-c2noc(-c3cc(C)nc(N(CC)CC)c3)n2)cc(C)c1OC[C@@H](O)CO
[7]
  concentration at 24 h: 34 ng/mL
[8]
  concentration at 6 h: 271 ng/mL
[9]
  concentration at 2 h: 435 ng/mL
[10]
  concentration at 2 h: 608 ng/mL
[11]
  concentration at 24 h: 22 ng/mL
[12]
  concentration at 6 h: 254 ng/mL

## CCc1cc(-c2nnc(-c3cc(C)nc(N(CC)CC)c3)o2)cc(C)c1OC[C@@H](O)CO
[7]
  concentration at 24 h: 2 ng/mL
[8]
  concentration at 6 h: 215 ng/mL
[9]
  concentration at 2 h: 600 ng/mL
[10]
  concentration at 2 h: 820 ng/mL
[11]
  concentration at 24 h: 4 ng/mL
[12]
  concentration at 6 h: 315 ng/mL

## CCc1cc(-c2noc(-c3cc(C)nc(C4CCCC4)c3)n2)cc(C)c1OC[C@@H](O)CNC(=O)CO
[1]
  Vd: 7.3 L/kg
[2]
  AUC(0-inf): 566 ng·h/mL
[13]
  bioavailability: 39%
[14]
  AUC(0-t) at 24 h: 436 ng·h/mL
[15]
  Tmax: 3 h
[16]
  Cmax: 49 ng/mL

## CCc1cc(-c2noc(-c3cc(C)nc(N(CC)CC)c3)n2)cc(C)c1OC[C@@H](O)CNC(=O)CO
[7]
  concentration at 24 h: 487 ng/mL
[8]
  concentration at 6 h: 653 ng/mL
[17]
  Tmax: 6 h
[9]
  concentration at 2 h: 269 ng/mL
[18]
  Tmax: 2 h
[10]
  concentration at 2 h: 2170 ng/mL
[19]
  Vd: 1.1 L/kg
[20]
  AUC(0-inf): 5450 ng·h/mL
[21]
  Vd: 1.2 L/kg
[22]
  AUC(0-inf): 3350 ng·h/mL
[23]
  Vd: 3.5 L/kg
[24]
  AUC(0-inf): 3200 ng·h/mL
[25]
  bioavailability: 16%
[26]
  AUC(0-t) at 24 h: 866 ng·h/mL
[27]
  bioavailability: 32%
[28]
  AUC(0-t) at 24 h: 3250 ng·h/mL
[29]
  Tmax: 1 h
[30]
  Cmax: 546 ng/mL
[31]
  AUC(0-t) at 32 h: 16500 ng·h/mL
[3]
  bioavailability: 52%
[5]
  Tmax: 2 h
[6]
  Cmax: 1090 ng/mL
[11]
  concentration at 24 h: 412 ng/mL
[12]
  concentration at 6 h: 1780 ng/mL
[32]
  Cmax: 97 ng/mL
[33]
  Tmax: 2 h

## CCc1cc(-c2nc(-c3cc(C)nc(N(CC)CC)c3)no2)cc(C)c1OC[C@@H](O)CNC(=O)CO
[7]
  concentration at 24 h: 301 ng/mL
[8]
  concentration at 6 h: 369 ng/mL
[9]
  concentration at 2 h: 140 ng/mL
[10]
  concentration at 2 h: 875 ng/mL
[11]
  concentration at 24 h: 230 ng/mL
[12]
  concentration at 6 h: 918 ng/mL

## CCc1cc(-c2nnc(-c3cc(C)nc(N(CC)CC)c3)o2)cc(C)c1OC[C@@H](O)CNC(=O)CO
[7]
  concentration at 24 h: 3 ng/mL
[8]
  concentration at 6 h: 52 ng/mL
[9]
  concentration at 2 h: 46 ng/mL
[10]
  concentration at 2 h: 815 ng/mL
[11]
  concentration at 24 h: 8 ng/mL
[12]
  concentration at 6 h: 510 ng/mL

## CCc1cc(-c2noc(-c3cc(C4CCCC4)cc(C)n3)n2)cc(C)c1OC[C@@H](O)CNC(=O)CO
[11]
  concentration at 24 h: 9 nM
[12]
  concentration at 6 h: 1070 nM
[34]
  concentration at 3 h: 1890 nM

## CCc1cc(-c2noc(-c3cc(C)c(C4CCCC4)cn3)n2)cc(C)c1OC[C@@H](O)CNC(=O)CO
[11]
  concentration at 24 h: 800 nM
[12]
  concentration at 6 h: 3690 nM
[34]
  concentration at 3 h: 4910 nM
